Consider 80 compounds from the METLIN SMRT retention time set (Domingo-Almenara et al. 2019).

The nature of this data set: gradient 5% acetonitrile 3 min, to 50% in 2 min, to 85% in 15 min, held 3 min, 100 µL/min. To be noted: column: Zorbax Extend-C18 2.1 x 50 mm; eluents: water / acetonitrile, 0.1% formic acid. An outline of the steps: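 In both positive and negative ionization mode, a quadrupole time-of-flight mass spectrometer coupled to HPLC analyzed pure standards run in mixtures of ~100 molecules. The Zorbax Extend-C18 column (2.1 × 50 mm, 1.8 μm) was operated at 100 μL/min with water and acetonitrile, each containing 0.1% formic acid. The dead volume was 40 μL and the dwell volume 900 μL. Retention time came from adduct peaks that were computationally picked and individually inspected by hand.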
The compound `CN1C(=O)c2cccc(NC(=O)c3ccc(S(=O)(=O)N4CCOCC4)cc3)c2C1=O` displayed an RP-LC retention time of 813 s. The figure for `CC(C)CCNC(=O)C1CCCN(c2ccnc(-c3ccc(F)cc3)n2)C1` (stereo not given) is 690 s; for `CCn1nccc1C(=O)N1CC(N(C2CCOCC2)S(C)(=O)=O)C1` it is 624 s.

`Cc1cccc(NC(=O)C2CCc3sc(C(=O)N(C)C)cc3C2)c1` (stereo not given) came in with an RP-LC retention time of 846 s. The figure for `O=C(c1ccc(Cn2cncn2)cc1)N1CCN(c2ccccc2F)CC1` is 712 s; for `Cc1ccc(F)c(NS(=O)(=O)c2cc(-c3[nH]ncc3C(=O)N3CCCC3)oc2C)c1` it is 710 s; for `Cc1ccc(NC(=O)C(=O)NC(C)c2ccccc2)cc1C` (stereo not given) it is 1010 s. As for `O=C1CCC(C(=O)N2CCN(c3ccc(-n4cccn4)nn3)CC2)N1` (stereo not given), the RP-LC retention time worked out at 548 s.

The compound `Cc1nc(C2CCN(C(=O)CCc3c[nH]c4ccccc34)CC2)n[nH]1` had an RP-LC retention time of 603 s. The figure for `COc1ccc(F)cc1S(=O)(=O)N(C)CC1(C)CCOCC1` is 864 s; for `CCn1c(=O)oc2cc(-c3noc(-c4ccc(C)cc4)n3)ccc21` it is 1060 s. Then `Cc1ccc(N2CCC(N)C2=O)cc1C` (stereo not given), with 584 s. The figure for `CCCNC(=O)c1cc(-c2ccc(Cl)cc2)cn1C` is 957 s; for `COc1ccc(S(=O)(=O)N2CCC(c3cnn(-c4ccc(C)cc4)c3)CC2)cc1` it is 1110 s. `O=C(c1ccoc1)N1CCC(c2noc(C3CC3)n2)C1` (stereo not given) had an RP-LC retention time of 694 s.

Compound `O=C(O)CCC(=O)Nc1ccccc1Cl` yielded an RP-LC retention time of 616 s. The figure for `Cc1ccc(NC(=O)N2CCC(c3cc(N)on3)CC2)c(Cl)c1` is 736 s; for `Cc1cccc(NC(=O)c2ccc(=O)n(C)n2)n1` it is 595 s. In the case of `N#Cc1ccc(S(=O)(=O)N2CCCN(S(=O)(=O)c3ccccc3)CCC(=O)NCC2)cc1`, the RP-LC retention time is 797 s. Then `O=C(Nc1ccc(Cl)cc1)N1CCN(CCn2cnc3cccnc32)CC1`, with 604 s; and `CC(O)(CS(=O)(=O)c1ccc(F)cc1)C(=O)Nc1ccc(C#N)c(C(F)(F)F)c1` (stereo not given), with 992 s.

Consider `CC(=O)N1CCc2sc(S(=O)(=O)N3CCN(c4ccc(C)cc4)CC3)cc2C1`, for which the RP-LC retention time came to 926 s.

Turning to `O=C(Nc1ccccc1Cl)N(CCc1cccs1)C1CC1`, the RP-LC retention time is 1120 s. The figure for `Cc1ccc(S(=O)(=O)N2CCCC(c3nc(-c4cccc(-c5ccnn5C)c4)no3)C2)cc1` (stereo not given) is 1140 s; for `CN1C(=O)c2ccccc2Oc2ccc(C(=O)NCc3ccc(F)cc3)cc21` it is 868 s. Then `O=C(NCc1ccco1)c1ccc2c(c1)CCCN2C(=O)c1cccc(Cl)c1`, with 889 s; and `CSc1cccc(N2C(=O)C3N=NN(Cc4nc(-c5ccc(Cl)cc5)no4)C3C2=O)c1` (stereo not given), with 1070 s. Then `CC(C)NC(=O)CSc1ccc(N2CCN(c3ccccc3)CC2)nn1`, with 708 s; and `CCOc1nc2ccccc2nc1N1CCCC(C(=O)N2CCN(c3ccccc3OC)CC2)C1` (stereo not given), with 1250 s; and `O=C(c1ccc2ncccc2c1)N1CCN(c2cc(-c3cccs3)[nH]n2)CC1`, with 641 s. Consider `CCC(=O)N1CCc2cc(N3CC(C(=O)Nc4cccc(SC)c4)CC3=O)ccc21` (stereo not given), for which the RP-LC retention time amounted to 789 s. The figure for `O=C(Nc1ccc2nc(N3CCC(N4CCCCC4)CC3)cc(C(=O)O)c2c1)c1cccc(Cl)c1` is 601 s. The figure for `Cc1ccc(Oc2cccc(C(=O)NCCNc3cc(N4CCCC4)nc(C)n3)c2)nn1` is 562 s; for `N#Cc1cc2c(OCC(O)CN3CCN(C(c4ccccc4)c4ccccc4)CC3)cccc2[nH]1` (stereo not given) it is 819 s; for `O=C(c1cc(=O)c2ccccc2o1)N1CC2CC(C1)c1cccc(=O)n1C2` (stereo not given) it is 598 s. Then `CCN(Cc1ccncc1)C1CN(C(=O)NCc2ccc(C)cc2)C1`, with 591 s. As for `O=C(c1ccc2nnc(-c3ccc(Cl)cc3)n2c1)N1CCN(c2ccccn2)CC1`, the RP-LC retention time stood at 650 s. Then `COc1cccc(C2Nc3ccccc3NC3=C2C(=O)CC(C)(C)C3)c1O` (stereo not given), with 686 s; and `CN(C)Cc1cc(C(F)(F)F)ccc1C(O)(c1ccccc1)c1ccccc1`, with 883 s. With `COCC(=O)N1C[C@@H]2CCCN3CCC[C@@H]([C@H]23)[C@H]1CCCC(=O)NCC1CC1`, the RP-LC retention time was found to be 566 s. The figure for `CSc1ccc(C2c3[nH]c4ccccc4c3CCN2C(=O)Cc2cccs2)cc1` (stereo not given) is 1200 s; for `Cc1nnc(C2CC3(CCN(CCc4ccccc4)CC3)CN2Cc2ccccc2)o1` (stereo not given) it is 656 s.

Regarding `CN1CCn2ccnc2C12CCN(S(=O)(=O)c1ccccc1C(F)(F)F)CC2`, the RP-LC retention time was determined as 654 s. Then `O=C(c1ccc2nc[nH]c2c1)N1CCCN(c2cc(-c3ccc(Br)cc3)[nH]n2)CC1`, with 625 s; and `O=C(c1ccco1)N1CCC(Oc2nc3ccc(F)cc3s2)CC1`, with 902 s. The figure for `CCn1c(=O)c(N2CCC(C(=O)NC3CCCCCCC3)CC2)nc2cccnc21` is 1080 s; for `CCc1ccc(CNC(=O)C2CCCN(c3nc4c(s3)c(C)nn4-c3ccc(F)cc3)C2)cc1` (stereo not given) it is 1240 s; for `Cc1cccc(CCNC(=O)Cc2csc3nc(-c4ccccc4)cn23)c1` it is 810 s. Turning to `Cc1ccccc1CC(=O)N1CCc2cc(-c3ccno3)ccc21`, the RP-LC retention time amounted to 1020 s. The compound `O=C(Cn1ccn2nc(-c3ccc(F)cc3)c(CO)c2c1=O)N1CCCc2ccccc21` came in with an RP-LC retention time of 899 s. The figure for `CCn1c(CCNC(=O)c2cccc(N(C)C)c2)nc2cccnc21` is 586 s; for `C=CCn1c(SCC(=O)OCC)nnc1-c1ccc([N+](=O)[O-])cc1` it is 743 s; for `CCNC(=O)c1nc(N(C)C)c2c(C)scc2n1` it is 593 s. Then `Cc1ccc(C(=O)N2CCOc3ccc(NC(=O)C4CC4)cc3C2)s1`, with 790 s; and `O=C(O)CNS(=O)(=O)c1ccc(Cl)c(-c2nnc(-c3ccccc3)o2)c1`, with 766 s; and `Cc1ccc(-c2ccc(=O)n(CCc3nc(-c4ccc(F)cc4)no3)n2)cc1C`, with 1100 s.

Compound `Brc1ccc(-c2ccc(CNc3ncn[nH]3)o2)cc1` registered an RP-LC retention time of 708 s.

`O=C(N[C@H]1C[C@@H]2C[C@H]1N(S(=O)(=O)c1ccc3c(c1)OCCO3)C2)c1cccs1` displayed an RP-LC retention time of 816 s. As for `CNC(=O)c1ccc2c(c1)CCN2C(=O)C(C)C`, the RP-LC retention time came out at 644 s. Then `Cc1ccc(-c2noc(Cn3ccn(-c4ccc(Cl)cc4)c(=O)c3=O)n2)cc1`, with 918 s; and `CCN1C(=O)COc2ccc(-c3noc(-c4cccc(OC)c4)n3)cc21`, with 1130 s; and `COc1ccccc1N1CCN(Cc2nc3nc(C)cc(N4CCOCC4)n3n2)CC1`, with 602 s.

Take `Cc1nc(-c2cc(S(=O)(=O)N3CCC(C(=O)NC4CCCCCC4)CC3)c(C)s2)no1`: the RP-LC retention time was 707 s. As for `CC(=O)c1cccc(NC(=O)Cn2cccc2-c2nc(-c3ccccc3)no2)c1`, the RP-LC retention time is 988 s. Then `CCn1nccc1-c1cccc(-c2noc(C3(c4ccc(OC)cc4)CC3)n2)c1`, with 1240 s. The figure for `Cc1ccc(C)c(-c2nc(-c3cccc(-c4ccn[nH]4)c3)no2)c1` is 1190 s. The figure for `O=C(CN1CCN(Cc2ccc(F)cc2)C1=O)NC1CCN(Cc2ccccc2)CC1` is 618 s; for `COc1ccc(OC)c(NC(=O)Cn2cnc3nc4c(cc3c2=O)CCCC4)c1` it is 676 s.

`COc1ccc(OCc2noc(CNC(=O)Nc3ccccc3F)n2)cc1` showed an RP-LC retention time of 804 s. Compound `CCOC(=O)c1c(C)oc2ncnc(N3CCC(c4ccccc4)C3)c12` (stereo not given) displayed an RP-LC retention time of 1100 s. Then `O=C(NC1CCc2nnc(C3CC3)n2CC1)c1cccs1` (stereo not given), with 589 s; and `Cn1cc(-c2nnc(SCC(=O)N3CCc4ccccc43)n2C)c(-c2ccccc2)n1`, with 766 s; and `COc1cccc(S(=O)(=O)N2CCC3(CC2)N(C2CCCC2)C(=O)CS3=O)c1` (stereo not given), with 780 s. The figure for `COCCn1cc(C(=O)Nc2ccccc2)c2nn(-c3ccccc3)c(=O)c-2c1` is 937 s; for `C=CCNC(=O)C1CCN(C(=O)Nc2ccc(NC(=O)Nc3cccc(F)c3)cc2)CC1` it is 706 s. Then `CC(C)N1CCN(Cc2ccc(C(=O)NCc3cccc(C(F)(F)F)c3)cc2)C(=O)C1=O`, with 766 s; and `NS(=O)(=O)c1ccc(NS(=O)(=O)c2cc(-c3ccno3)cs2)cc1`, with 710 s. The compound `COC(=O)c1ccc(NC(=O)c2oc(C)nc2C)cc1` showed an RP-LC retention time of 658 s.

In turn, `Cc1nc2ccn(Cc3ccco3)c(=O)c2cc1C(=O)NC1CCCC1` displayed an RP-LC retention time of 723 s.

As for `CC1(C)CCCC2(C)C(OCCO)=CC(=O)C=C12` (stereo not given), the RP-LC retention time came to 794 s.
